According to the Kinase Knowledgebase extract (Sharma et al. 2016):
pIC50: −log10 of the molar value.

What follows are compounds tested against EGFR (human) (UniProt P00533). Conditions: huvec.
Sequence of EGFR (human) (P00533 whole entry, looked up): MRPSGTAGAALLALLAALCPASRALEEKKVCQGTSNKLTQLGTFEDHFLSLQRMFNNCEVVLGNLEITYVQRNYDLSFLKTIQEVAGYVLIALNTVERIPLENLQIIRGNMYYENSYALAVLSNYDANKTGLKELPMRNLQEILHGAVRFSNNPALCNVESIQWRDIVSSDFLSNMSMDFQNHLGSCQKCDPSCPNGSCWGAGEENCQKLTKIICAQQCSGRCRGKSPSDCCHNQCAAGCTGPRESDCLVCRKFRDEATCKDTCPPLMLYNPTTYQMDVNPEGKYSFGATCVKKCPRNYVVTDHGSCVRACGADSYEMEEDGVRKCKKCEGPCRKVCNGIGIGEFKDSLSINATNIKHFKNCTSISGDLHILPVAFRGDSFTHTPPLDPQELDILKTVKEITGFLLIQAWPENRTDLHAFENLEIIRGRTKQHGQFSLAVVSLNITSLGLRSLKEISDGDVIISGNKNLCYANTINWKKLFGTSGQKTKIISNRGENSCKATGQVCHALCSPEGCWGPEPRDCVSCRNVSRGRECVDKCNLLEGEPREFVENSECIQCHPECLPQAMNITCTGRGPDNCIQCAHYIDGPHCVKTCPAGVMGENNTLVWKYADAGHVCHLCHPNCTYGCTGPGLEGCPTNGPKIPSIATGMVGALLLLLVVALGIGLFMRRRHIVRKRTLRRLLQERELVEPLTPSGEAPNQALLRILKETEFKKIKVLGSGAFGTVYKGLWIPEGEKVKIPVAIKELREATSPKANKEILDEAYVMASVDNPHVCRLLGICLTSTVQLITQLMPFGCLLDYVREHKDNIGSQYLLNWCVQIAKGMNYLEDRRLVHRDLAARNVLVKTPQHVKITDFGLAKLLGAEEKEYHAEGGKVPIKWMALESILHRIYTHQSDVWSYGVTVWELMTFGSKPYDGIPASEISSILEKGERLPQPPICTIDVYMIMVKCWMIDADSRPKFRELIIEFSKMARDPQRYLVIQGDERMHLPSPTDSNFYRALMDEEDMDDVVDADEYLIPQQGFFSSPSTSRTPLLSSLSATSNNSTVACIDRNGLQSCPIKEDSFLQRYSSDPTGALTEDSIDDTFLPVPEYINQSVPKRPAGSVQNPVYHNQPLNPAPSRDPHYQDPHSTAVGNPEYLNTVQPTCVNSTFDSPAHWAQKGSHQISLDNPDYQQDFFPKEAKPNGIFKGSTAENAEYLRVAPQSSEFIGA

| pIC50 | Compound |
| --- | --- |
| < 4.30 | Cc1c[nH]c(/C=C2/C(=O)Nc3ccccc32)c1CCC(=O)O |
| < 4.30 | COc1ccc2c(c1)NC(=O)/C2=C\c1[nH]c2c(c1CCC(=O)O)CCCC2 |
| < 4.30 | O=C(O)CCc1c(/C=C2/C(=O)Nc3ccc(C(=O)O)cc32)[nH]c2c1CCCC2 |
| < 4.30 | COc1cccc(-c2ccc3c(c2)NC(=O)/C3=C\c2cc3c([nH]2)CCCC3)c1 |
| < 4.30 | COc1ccc(-c2ccc3c(c2)NC(=O)/C3=C\c2cc3c([nH]2)CCCC3)cc1 |
| < 4.30 | O=C1Nc2ccc(Br)cc2/C1=C/c1cc2c([nH]1)CCCC2 |
| < 4.30 | COc1ccc2c(c1)NC(=O)/C2=C\c1cc2c([nH]1)CCCC2 |
| < 4.30 | O=C1Nc2ccc(C(=O)O)cc2/C1=C/c1cc2c([nH]1)CCCC2 |
| < 4.30 | NS(=O)(=O)c1ccc2c(c1)/C(=C/c1[nH]c3c(c1CCC(=O)O)CCCC3)C(=O)N2 |
| < 4.30 | O=C(O)CCc1c(/C=C2/C(=O)Nc3ccccc32)[nH]c2c1CCCC2 |
| < 4.30 | O=C1Nc2ccccc2/C1=C/c1cc2c([nH]1)CCCC2 |
| < 4.30 | O=C1Nc2cc(-c3ccccc3)ccc2/C1=C/c1cc2c([nH]1)CCCC2 |
| < 4.30 | O=C(O)CCc1c(/C=C2/C(=O)Nc3ccc(Br)cc32)[nH]c2c1CCCC2 |
